In paper PMC11784013, “Potassium molybdate blocks APN-dependent coronavirus entry by degrading receptor via PIK3C3-mediated autophagy” (Journal of Virology, 2024):

Tests used:
[1] = tested on: autophagy markers P62 and LC3; assay: Autophagy markers P62 and LC3 in ST cells (western blot); assay type: cell-based, swine; details: PM 10 mM; for LC3 (LC3-Ⅱ) level, western blot, relative to WT without PM (=1) / P62 level, western blot, relative to WT without PM (=1): PRCV 0.1 MOI, 16 h
Experimental: Fig 6 PM degrades APN by autophagy-lysosome pathway. (A) ST cells were treated with PM (10 mM) and infected with TGEV (0.1 MOI) in the presence and absence of MG132 (20 µM), 3-MA (20 mM), and Z-VAD-FMK (20 µM) for 16 h. The APN expression and TGEV N were detected by western blot. (B) ST cells were treated with PM (10 mM) at 2, 4, 8, and 16 h, autophagy markers P62 and LC3, and APN were measured by western blot. (C) ST cells were transfected with RFP-EGFP-LC3B for 12 h and then treated with PM (10 mM) or H2O for 36 h. The fluorescence of GFP and RFP was detected by confocal microscopy, scale bar: 5 µm. (D) Quantification of autophagosomes (Merge) and autolysosomes (RFP) from C using Image J software. (E) ST cells were treated with PM or H2O for 24 h. The autophagosomes (yellow arrow) and autolysosomes (asterisk) were detected by transmission electron microscope, scale bar: 2 µm. (F) The number of autophagosomes (yellow arrow) and autolysosomes (asterisk) was quantified. All western blot results were calculated by Image J. Results are presented as mean ± SD of data from three independent experiments. ***, P ≤ 0.001.
Cotransfected cells were washed with cold PBS twice and lysed with NP40 lysis buffer (Beyotime, China, P0013F) supplemented with 1 mM PMSF (Beyotime, China, ST506) and phosphatase inhibitors (Beyotime, China, P1096). Lysis buffer containing cells was added to 20 µL of protein A+G agarose beads (Beyotime, China, P2055) and IgG (Santa Cruz, USA, 2025) on a rotating device for 4 h at 4°C to remove nonspecific proteins, after which the mixture was centrifuged at 2,500 rpm for 5 min. The supernatant was harvested, and anti-Flag/Myc/His/IgG antibodies were added to the samples on a rocking platform overnight at 4°C. Subsequently, 40 µL of protein A+G agarose beads were added to the supernatant containing the antibody, which was incubated for 4 h at 4°C on a rotating device. After washing with lysis buffer three times, the immunoprecipitates were collected by centrifugation, and the supernatant was discarded. Immunoprecipitated proteins were detected by western blotting. For the western blot, the proteins were separated by SDS‒PAGE and transferred onto a PVDF membrane (GE, USA, 10600023). The membranes were blocked in 5% nonfat milk at room temperature for 2 h and then incubated with specific primary antibodies overnight. Subsequently, the membrane was incubated with the secondary antibody for 1 h at room temperature. Finally, the proteins on the membranes were visualized with WesternBright ECL (Advansta, USA, K-12045-D50).
Fig. S8. PM inhibits PRCV infection by degrading APN via PIK3C3-mediated autophagy. (A-C) WT ST cells and PIK3C3 KO ST cells were treated with PM (10 mM) and infected with PRCV (0.1 MOI) for 16 h. Then the APN, PIK3C3, ATG14, BECN1, P62, PRCV N and LC3 were detected by western blot (A), and viral titers and PRCV N mRNA level were determined by TCID50 (B) and RT-qPCR (C) . (D-F) WT ST cells and PIK3C3 KO ST cells transfected with pCMV-Myc and pCMV-Myc-PIK3C3 respectively for 24 h were treated with PM (10 mM) and infected with PRCV (0.1 MOI) for 16 h. The APN, PIK3C3, P62, PRCV N and LC3 were determined by western blot (D). TCID50 (E) and RT-qPCR (F) were performed to detect viral titers and PRCV N m RNA level. All western blot results were calculated by Image J. Results are presented as mean ± SD of data from three independent experiments (also on this page, place not known: 6 8 10 12 Viral load(log copies/ul) *** 2 4 6 8 log10 TCID50/ml *** 6 8 10 12 + Viral load(log copies/ul) PIK3C3-Myc + - + + + *** *** 2 4 6 8 log10 TCID50/ml *** + + + + PIK3C3-Myc - - - + - + + + *** WT KO PM (C). WT KO PM PRCV PM - + + PRCV + + + WT PIK3C3 KO PIK3C3 PRCV PIK3C3-Myc - - - + PM - + + + PRCV + + + + WT PIK3C3 KO 0 0) […]

[2] = tested on: APN; assay: APN expression in BHK-21 cells (western blot); assay type: cell-based, mouse; details: for APN level, western blot quantified by Image J, relative to no PM (=1): PM 10 mM
Experimental: Fig. S6. PM degrades human and mouse-derived APN expression. (A and B) HEK-293T cells (A) and […] (B) were treated with PM (10 mM) for 8 h or 16 h respectively, APN expression was measured by western blot. All western blot results were calculated by Image J. All experiments were […]
PM(10mM) - + - + PM(10mM) - + - + […]

[3] = Fig. S8D, PIK3C3 KO ST cells with PIK3C3-Myc
[4] = Fig. S8D, PIK3C3 KO ST cells without PIK3C3-Myc
[5] = Fig. S8D, WT ST cells with pCMV-Myc

Q: For `[K+].[K+].[O]=[Mo](=[O])([O-])[O-]` [PM, potassium molybdate], which “LC3 (LC3-Ⅱ) level, western blot, relative to WT without PM (=1)” value (from here on “LC3 … relative to WT without PM (=1)”) ([1]; Fig. S8A, PIK3C3 KO ST cells) is on record?
A: 0.95

Q: What about the “P62 level, western blot, relative to WT without PM (=1)” value ([1]; Fig. S8A, PIK3C3 KO ST cells) of the same compound?
A: 0.83

Q: And the “LC3 … relative to WT without PM (=1)” value ([1]; Fig. S8A, WT ST cells)?
A: 3.42

Q: And the “P62 level, western blot, relative to WT without PM (=1)” value ([1]; Fig. S8A, WT ST cells)?
A: 0.16

Q: And the “LC3 … relative to WT without PM (=1)” value [1, 3]?
A: 3.45

Q: What about the “P62 level, western blot, relative to WT without PM (=1)” value [1, 3] of the same compound?
A: 0.27

Q: What about the “LC3 … relative to WT without PM (=1)” value [1, 4] of the same compound?
A: 1.12

Q: And the “P62 level, western blot, relative to WT without PM (=1)” value [1, 4]?
A: 0.91

Q: What about the “LC3 … relative to WT without PM (=1)” value [1, 5] of the same compound?
A: 3.61

Q: And the “P62 level, western blot, relative to WT without PM (=1)” value [1, 5]?
A: 0.26

Q: What about the “LC3-II generation from LC3-I” value ([1]; ST cells, 2-16 h, western blot) of the same compound?
A: more of the autophagosome protein LC3-II was generated

Q: What about the p62 level ([1]; ST cells, 2-16 h, western blot) of the same compound?
A: p62 was consumed

Q: What about the “APN level, western blot quantified by Image J, relative to no PM (=1)” value ([2]; 8 h) of the same compound?
A: 0.38

Q: And the “APN level, western blot quantified by Image J, relative to no PM (=1)” value ([2]; 16 h)?
A: 0.20

Q: And the “mouse-derived APN expression” value ([2]; PM for 8 and 16 h)?
A: also decreased human and mouse-derived APN expression
